Data taken from BindingDB's records for doi:10.1016/j.bmcl.2011.03.071 (University of Canterbury, 2011).

Biological target: Phospho-2-dehydro-3-deoxyheptonate aldolase (Escherichia coli, UniProt C3TIE2)
Experiment: Competitive inhibition of recombinant Escherichia coli DAH7P synthase using PEP as substrate by Michaelis-Menten equation analysis using UV-visible spectrophotometry

Phospho-2-dehydro-3-deoxyheptonate aldolase, sequence (C3TIE2 1-350): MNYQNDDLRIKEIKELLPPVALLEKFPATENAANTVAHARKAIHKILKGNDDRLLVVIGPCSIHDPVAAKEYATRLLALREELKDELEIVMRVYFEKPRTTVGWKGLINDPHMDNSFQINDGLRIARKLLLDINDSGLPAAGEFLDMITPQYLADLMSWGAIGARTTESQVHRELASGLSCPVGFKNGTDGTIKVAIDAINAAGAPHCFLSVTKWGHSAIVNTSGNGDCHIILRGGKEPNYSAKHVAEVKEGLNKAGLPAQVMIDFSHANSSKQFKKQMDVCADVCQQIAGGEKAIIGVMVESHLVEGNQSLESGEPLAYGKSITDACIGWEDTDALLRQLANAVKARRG

O=C(O)C(=CCCCCOP(=O)(O)O)CP(=O)(O)O
Ki: 154 µM
